According to PubChem BioAssay AID248 (DTP/NCI, 2004):
Several values for one entry are separate records, joined by “and”; a condition that tells them apart may be missing. Equal values may be shown once. Inconclusive results and toxic doses are left out. No stated cut-off is given here; in the data, active means T/C of 150% or more; inactive means T/C below 125%.

System: L1210 leukemia ip in BDF1 mice, survival T/C
Experiment: NCI In Vivo Anticancer Drug Screen. Data for tumor model L1210 Leukemia (intraperitoneal) in B6D2F1 (BDF1) mice
Details: endpoint: mean survival time, higher = longer survival
In short: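 Survival endpoint. Drug-treated group vs vehicle group, expressed as T divided by C. Tumor passaged by transplantation.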

[1] = dose: 100.0 mg/kg/injection, schedule: Q01DX009 (ip), vehicle: saline with Tween-80
[2] = dose: 100.0 mg/kg/injection, schedule: Q04DX003 (ip), vehicle: saline with Tween-80
[3] = dose: 200.0 mg/kg/injection, schedule: Q01DX009 (ip), vehicle: saline with Tween-80
[4] = dose: 200.0 mg/kg/injection, schedule: Q04DX003 (ip), vehicle: saline with Tween-80
[5] = dose: 400.0 mg/kg/injection, schedule: Q04DX003 (ip), vehicle: saline with Tween-80
[6] = dose: 100.0 mg/kg/injection, schedule: Q01DX001 (ip), vehicle: saline
[7] = dose: 100.0 mg/kg/injection, schedule: Q04DX003 (ip), vehicle: saline
[8] = dose: 200.0 mg/kg/injection, schedule: Q01DX001 (ip), vehicle: saline
[9] = dose: 200.0 mg/kg/injection, schedule: Q04DX003 (ip), vehicle: saline
[10] = dose: 400.0 mg/kg/injection, schedule: Q01DX001 (ip), vehicle: saline
[11] = dose: 400.0 mg/kg/injection, schedule: Q04DX003 (ip), vehicle: saline
[12] = dose: 200.0 mg/kg/injection, schedule: Q01DX001 (sc), vehicle: steriod suspending solution
[13] = dose: 400.0 mg/kg/injection, schedule: Q01DX001 (sc), vehicle: steriod suspending solution

Measured: T/C

CSc1ccc(NC(=O)Oc2cc3ccccc3cc2C(=O)Nc2ccccc2)cc1
inactive: dose: 50.0 mg/kg/injection, schedule: Q01DX009 (ip), vehicle: saline with Tween-80 97 % of control and 99 % of control | dose: 100.0 mg/kg/injection, schedule: Q01DX001 (ip), vehicle: saline with Tween-80 95 % of control | [1] 96 % of control and 86 % of control | dose: 100.0 mg/kg/injection, schedule: Q04DX002 (ip), vehicle: saline with Tween-80 100 % of control and 92 % of control | [2] 87 % of control | dose: 200.0 mg/kg/injection, schedule: Q01DX001 (ip), vehicle: saline with Tween-80 87 % of control | [3] 96 % of control and 90 % of control | dose: 200.0 mg/kg/injection, schedule: Q04DX002 (ip), vehicle: saline with Tween-80 98 % of control and 91 % of control | [4] 94 % of control | dose: 400.0 mg/kg/injection, schedule: Q01DX001 (ip), vehicle: saline with Tween-80 88 % of control | dose: 400.0 mg/kg/injection, schedule: Q04DX002 (ip), vehicle: saline with Tween-80 95 % of control | [5] 91 % of control

CCOC(=O)C(C)Cl (stereo unspecified)
inactive: dose: 100.0 mg/kg/injection, schedule: Q01DX009 (ip), vehicle: Klucel (hydroxypropylcellulose) (HPC) 97 % of control | dose: 100.0 mg/kg/injection, schedule: Q04DX003 (ip), vehicle: Klucel (hydroxypropylcellulose) (HPC) 103 % of control | dose: 200.0 mg/kg/injection, schedule: Q01DX009 (ip), vehicle: Klucel (hydroxypropylcellulose) (HPC) 96 % of control | dose: 200.0 mg/kg/injection, schedule: Q04DX003 (ip), vehicle: Klucel (hydroxypropylcellulose) (HPC) 103 % of control | dose: 400.0 mg/kg/injection, schedule: Q04DX003 (ip), vehicle: Klucel (hydroxypropylcellulose) (HPC) 103 % of control

Cc1cnc(SCc2ccc(F)cc2)nc1N(C)C
inactive: dose: 100.0 mg/kg/injection, schedule: Q01DX Z (ip), vehicle: methylcellulose (MC) 88 % of control

CC(=O)OCC1(C[N+](C)(C)C)CC1
inactive: [6] 103 % of control | [7] 100 % of control | [8] 97 % of control | [9] 100 % of control | [10] 105 % of control | [11] 100 % of control

O=S(=O)(C/C=C/COc1ccccc1)c1ccc2ccccc2c1
inactive: dose: 75.0 mg/kg/injection, schedule: Q01DX001 (ip), vehicle: Klucel (hydroxypropylcellulose) (HPC) 104 % of control | dose: 75.0 mg/kg/injection, schedule: Q01DX009 (ip), vehicle: Klucel (hydroxypropylcellulose) (HPC) 102 % of control | dose: 150.0 mg/kg/injection, schedule: Q01DX001 (ip), vehicle: Klucel (hydroxypropylcellulose) (HPC) 94 % of control | dose: 150.0 mg/kg/injection, schedule: Q01DX009 (ip), vehicle: Klucel (hydroxypropylcellulose) (HPC) 96 % of control | dose: 300.0 mg/kg/injection, schedule: Q01DX001 (ip), vehicle: Klucel (hydroxypropylcellulose) (HPC) 113 % of control | dose: 300.0 mg/kg/injection, schedule: Q01DX009 (ip), vehicle: Klucel (hydroxypropylcellulose) (HPC) 98 % of control

O=C(CCl)c1ccc[nH]1
inactive: dose: 50.0 mg/kg/injection, schedule: Q01DX015 (ip), vehicle: carboxymethylcellulose (CMC) 93 % of control | dose: 75.0 mg/kg/injection, schedule: Q01DX001 (ip), vehicle: carboxymethylcellulose (CMC) 93 % of control | dose: 100.0 mg/kg/injection, schedule: Q01DX015 (ip), vehicle: carboxymethylcellulose (CMC) 93 % of control

CCOC(OCC)C(=O)C(C#N)c1ccc(Cl)c(Cl)c1 (stereo unspecified)
inactive: dose: 5.0 mg/kg/injection, schedule: Q01DX001 (ip), vehicle: saline 109 % of control | dose: 10.0 mg/kg/injection, schedule: Q01DX001 (ip), vehicle: saline 100 % of control | dose: 20.0 mg/kg/injection, schedule: Q01DX001 (ip), vehicle: saline 105 % of control | dose: 40.0 mg/kg/injection, schedule: Q01DX001 (ip), vehicle: saline 97 % of control | dose: 80.0 mg/kg/injection, schedule: Q01DX001 (ip), vehicle: saline 97 % of control

Sc1ccccc1
inactive: [2] 92 % of control | [4] 99 % of control | [5] 94 % of control

N#Cc1cccc(N)c1
inactive: [6] 109 % of control | [7] 100 % of control | [9] 94 % of control | [10] 88 % of control | [11] 93 % of control

O=[N+]([O-])c1cccc(NSNc2cccc([N+](=O)[O-])c2)c1
inactive: dose: 50.0 mg/kg/injection, schedule: Q01DX001 (ip), vehicle: Klucel (hydroxypropylcellulose) (HPC) 100 % of control | dose: 100.0 mg/kg/injection, schedule: Q01DX001 (ip), vehicle: Klucel (hydroxypropylcellulose) (HPC) 98 % of control | dose: 200.0 mg/kg/injection, schedule: Q01DX001 (ip), vehicle: Klucel (hydroxypropylcellulose) (HPC) 87 % of control

CC(C)(C)C(=O)OCN1CCOCC1
inactive: dose: 75.0 mg/kg/injection, schedule: Q01DX001 (ip), vehicle: saline 106 % of control | dose: 150.0 mg/kg/injection, schedule: Q01DX001 (ip), vehicle: saline 103 % of control | dose: 300.0 mg/kg/injection, schedule: Q01DX001 (ip), vehicle: saline 108 % of control

N#CC1(C#N)C2C=CC(C3CC=CC32)C1(C#N)C#N (stereo unspecified)
inactive: dose: 12.5 mg/kg/injection, schedule: Q01DX009 (ip), vehicle: saline with Tween-80 101 % of control | dose: 25.0 mg/kg/injection, schedule: Q01DX009 (ip), vehicle: saline with Tween-80 97 % of control | dose: 25.0 mg/kg/injection, schedule: Q04DX003 (ip), vehicle: saline with Tween-80 108 % of control | dose: 50.0 mg/kg/injection, schedule: Q04DX003 (ip), vehicle: saline with Tween-80 105 % of control | [2] 93 % of control

CC(=O)[C@H]1CC[C@H]2[C@@H]3CCC4=CC(=O)[C@H](C)C[C@]4(C)[C@H]3C(=O)C[C@]12C
inactive: [12] 98 % of control | dose: 200.0 mg/kg/injection, schedule: Q01DX009 (sc), vehicle: steriod suspending solution 100 % of control | [13] 104 % of control | dose: 400.0 mg/kg/injection, schedule: Q01DX009 (sc), vehicle: steriod suspending solution 100 % of control | dose: 600.0 mg/kg/injection, schedule: Q01DX001 (sc), vehicle: steriod suspending solution 96 % of control | dose: 600.0 mg/kg/injection, schedule: Q01DX009 (sc), vehicle: steriod suspending solution 92 % of control | dose: 800.0 mg/kg/injection, schedule: Q01DX001 (sc), vehicle: steriod suspending solution 96 % of control | dose: 800.0 mg/kg/injection, schedule: Q01DX009 (sc), vehicle: steriod suspending solution 92 % of control

CC(=O)C1CCC2C3CCC4=CC(=O)CCC4(C)C3(C)C(=O)CC12C (stereo unspecified)
inactive: dose: 50.0 mg/kg/injection, schedule: Q01DX001 (sc), vehicle: steriod suspending solution 102 % of control and 105 % of control | dose: 100.0 mg/kg/injection, schedule: Q01DX001 (sc), vehicle: steriod suspending solution 102 % of control and 107 % of control | [12] 105 % of control | [13] 105 % of control and 96 % of control

O=C1NC(=S)S/C1=C\c1ccc([N+](=O)[O-])cc1
inactive: [6] 90 % of control

CCOC(=O)CSC1=NCCN1
inactive: [6] 105 % of control | [8] 113 % of control | [10] 105 % of control

O=C1OC(c2ccccc2)(c2ccccn2)c2ccccc21 (stereo unspecified)
inactive: [1] 90 % of control | [3] 92 % of control | dose: 400.0 mg/kg/injection, schedule: Q01DX009 (ip), vehicle: saline with Tween-80 88 % of control
